For the assay, the target named is T1, HIV-1 protease (Human immunodeficiency virus type 1 group M subtype B, UniProt P04585).
T1 construct: The protease (or proteinase), consisting of only 99 amino acids, is among the smallest enzymes known
Description: In vitro HIV protease inhibitory assay (HIV Protease FITC Assay). The assay is classed as biochemical. How it is done: The HIV protease screening assay is based on a fluorescently labeled substrate which can be resolved from nonlabeled cleavage product using avidin-polystyrene particles, 0.7-0.9 µm. The substrate is biotinylated at the amino terminal arginine and fluorescently labeled with fluorescein isothiocynate (FITC) at the carboxyl terminal lysine. […] Substrate (20 µl of 0.2 µM), sample (10 µl of desired concentraion), and enzyme (10 µl of 0.1 µM) are added to a 96 well pandex plate. The assay is run in 0.1 M sodium acetate buffer at pH 5.5 in the presence of 1.0 M sodium chloride and 0.05% NP-40 and incubated in the dark for one hour at room temperature. Avidin coated polystyrene beads {40 µl of 0.1% (w/v)} are added and the incubation is continued in the dark for an additional half hour. The labeled cleavage product is separated from the unreacted substrate via filtration and is read on the Idexx Screen Machine. The data are analyzed by appropriate computer algorithms to ascertain percent inhibition values.

[1] abbreviates: HIV-1 Dose 1.000 uM, read-out: HIV-1 Protease % Inhib.
Where [2] appears, read: HIV-1 Dose 10.000 uM, read-out: HIV-1 Protease % Inhib.
Where [3] appears, read: HIV-1 Dose 100.000 uM, read-out: HIV-1 Protease % Inhib.
The mark [4] stands for this setting: read-out: HIV-1 Protease % Inhib.

SMILES strings stand for the structures. pIC50, pKi: −log10 of the molar value. Where a name gives a salt, the structure may show the parent alone. Read-outs that look alike come from different tables or passages of the source.

Turning to `CCC(c1ccccc1)c1c(O)cc(C=Cc2ccc(OC)cc2)oc1=O` (stereo not drawn) [Example 15, 3-(α-ethylbenzyl)-4-hydroxy-6-(p-methoxystyryl)-2H-Pyran-2-one], the pIC50 (commonly the negative decadic logarithm of the IC50, by convention in mol/L) is 5.01. Moreover, the inhibition at 1 µM under setting [1] was found to be 21.5%. Also, under setting [2], the inhibition at 10 µM is 84%. The inhibition at 100 µM under setting [3] was found to be 102%.

Regarding `CCC(c1ccccc1)c1c(O)cc(CCc2ccc3ccccc3c2)oc1=O` (stereo not drawn) [Example 16, 3-(α-ethylbenzyl)-4-hydroxy-6-(2-naphth-2-ylethyl)-2H-Pyran-2-one], the inhibition at 1 µM under setting [1] is less than 10%. Moreover, the inhibition at 10 µM under setting [2] was less than 10%. The inhibition at 100 µM under setting [3] came to 49.9%.

Turning to `CCC(Cc1ccc2ccccc2c1)c1cc(O)c(C(CC)c2ccccc2)c(=O)o1` (stereo not drawn) [Example 17, 3-(α-ethylbenzyl)-4-hydroxy-6-(1-ethyl-2-naphth-2-ylethyl)-2H-Pyran-2-one], the inhibition at 1 µM under setting [1] was less than 10%. Besides, the inhibition at 10 µM under setting [2] amounted to 49.5%. Further, under setting [3], the inhibition at 100 µM is 73.6%.

In the case of `CCC(c1ccccc1)c1c(O)cc(CCc2cccc3ccccc23)oc1=O` (stereo not drawn) [Example 18, 3-(α-ethylbenzyl)-4-hydroxy-6-(2-naphth-1-ylethyl)-2H-Pyran-2-one], the inhibition at 1 µM under setting [1] was less than 10%. Under setting [2], the inhibition at 10 µM is 42.1%. In addition, the inhibition at 100 µM under setting [3] is 86.8%.

Take `CCC(Cc1cccc2ccccc12)c1cc(O)c(C(CC)c2ccccc2)c(=O)o1` (stereo not drawn) [Example 19, 3-(α-ethylbenzyl)-4-hydroxy-6-(1-ethyl-2-naphth-1-ylethyl)-2H-Pyran-2-one]: the inhibition at 1 µM under setting [1] amounted to 11%. Besides, the inhibition at 10 µM under setting [2] is 79.3%. For the same compound, the inhibition at 100 µM under setting [3] worked out at 84.3%.

Consider `Cc1cc(O)c(C(c2ccccc2)C2CC2)c(=O)o1` (stereo not drawn) [Example 20, 3-(α-cyclopropylbenzyl)-4-hydroxy-6-methyl-2H-Pyran-2-one], for which, under setting [1], the inhibition at 1 µM was less than 10%. The inhibition at 10 µM under setting [2] is less than 10%. The inhibition at 100 µM under setting [3] worked out at 60.6%.

In turn, `O=c1oc(CCCc2ccccc2)cc(O)c1C(c1ccccc1)C1CC1` (stereo not drawn) [Example 21, 3-(α-cyclopropylbenzyl)-4-hydroxy-6-(3-phenylpropyl)-2H-Pyran-2-one] showed a pIC50 of 5.02. Moreover, under setting [1], the inhibition at 1 µM was 17.6%. Further, the inhibition at 10 µM under setting [2] came to 83.7%. Further, the inhibition at 100 µM under setting [3] was found to be 110%.

`CCC(CC)c1cc(O)c(C(c2ccccc2)C2CC2)c(=O)o1` (stereo not drawn) [Example 22, 3-(α-cyclopropylbenzyl)-6-(1-ethylpropyl)-4-hydroxy-2H-Pyran-2-one]: the pIC50 is 5.74. In addition, under setting [1], the inhibition at 1 µM is 33.8%. The inhibition at 10 µM under setting [2] came to 98.3%. In addition, under setting [3], the inhibition at 100 µM is 108%.

With `O=c1oc(C(Cc2ccccc2)Cc2ccccc2)cc(O)c1C(c1ccccc1)C1CC1` (stereo not drawn) [Example 23, 3-(α-cyclopropylbenzyl)-6-(α-benzylphenethyl)-4-hydroxy-2H-Pyran-2-one], the pIC50 was 5.52. Moreover, the inhibition at 1 µM under setting [1] was less than 10%. The inhibition at 10 µM under setting [2] was 77.9%. The inhibition at 100 µM under setting [3] was found to be 87%.

In the case of `O=c1oc(CCc2ccccc2)cc(O)c1C(c1ccccc1)C1CC1` (stereo not drawn) [Example 24, 3-(α-cyclopropylbenzyl)-4-hydroxy-6-phenethyl-2H-Pyran-2-one], the pIC50 is 5.20. Also, the inhibition at 1 µM under setting [1] is less than 10%. Also, the inhibition at 10 µM under setting [2] was determined as 61.3%. In addition, the inhibition at 100 µM under setting [3] was 105%.

For the compound `CCCC(CCC)c1cc(O)c(C(c2ccccc2)C2CC2)c(=O)o1` (stereo not drawn) [Example 25, 3-(α-cyclopropylbenzyl)-6-(1-propylbutyl)-4-hydroxy-2H-Pyran-2-one], the pKi (commonly the Ki on a negative log10 scale, so that one unit is a factor of ten) (read-out: HIV-1 FITC Ki) was 7.39.

As for `CCC(c1ccccc1)C1C(=O)CC(CC)(c2ccccc2)OC1=O` (stereo not drawn) [Example 26, 6-Ethyl-3-(α-ethylbenzyl)-6-phenyl-tetrahydropyran-2,4-dione], the pKi is 6.79. Under setting [4], the inhibition at 1 µM was 38.7%, the inhibition at 10 µM worked out at 78.8% and the inhibition at 100 µM is 86.3%.

`CCC1(CC)CC(=O)C(CCCc2ccccc2)C(=O)O1` (stereo not drawn) [Example 27, 6,6-Diethyl-3-(3-phenylpropyl)-tetrahydropyran-2,4-dione]: the inhibition at 1 µM under setting [1] was 14.7%. In addition, the inhibition at 10 µM under setting [2] came out at 41.4%. Moreover, the inhibition at 100 µM under setting [3] worked out at 90.5%.

On to `CCCC1(c2ccccc2)CC(O)=C(C(CC)c2cccc(O)c2)C(=O)O1` (stereo not drawn) [Example 30, 5,6-Dihydro-4-hydroxy-6-phenyl-6-propyl-3-[1-(3-hydroxyphenyl)-propyl]-2H-pyran-2-one], for which, under setting [1], the inhibition at 1 µM stood at 46.4%. Also, the inhibition at 10 µM under setting [2] amounted to 86%. For the same compound, the inhibition at 100 µM under setting [3] is 75.7%.

The compound `CCC(C1=C(O)CC(c2ccccc2)(C2CCCCC2)OC1=O)c1cccc(O)c1` (stereo not drawn) [Example 31, 5,6-Dihydro-4-hydroxy-6-cyclohexyl-6-phenyl-3-[1-(3-hydroxyphenyl)propyl]-2H-pyran-2-one] showed a pKi of 6.21. For the same compound, under setting [4], the inhibition at 1 µM came to 18.7%, the inhibition at 10 µM is 81% and the inhibition at 100 µM turned out to be 86%.

In the case of `CCCC1(c2ccccc2)CC(O)=C(C(CC)c2ccccc2)C(=O)O1` (stereo not drawn) [Example 32, 5,6-Dihydro-4-hydroxy-6-phenyl-6-propyl-3-(1-phenylpropyl)-2H-pyran-2-one], the pKi was 6.60. In addition, under setting [4], the inhibition at 1 µM turned out to be 56.1%, the inhibition at 10 µM is 106% and the inhibition at 100 µM was found to be 93.1%.

Regarding `CCC(C1=C(O)CC2(CCCCC2)OC1=O)c1ccccc1` (stereo not drawn) [Example 33, 4-Hydroxy-1-oxa-3-(1-phenylpropyl)spiro-[5,5]-undec-3-en-2-one, sodium salt], under setting [4], the inhibition at 1 µM was found to be 10.2%, the inhibition at 10 µM turned out to be 68.5% and the inhibition at 100 µM came to 80.7%.

`C=CC(c1ccccc1)C1C(=O)CC(C)(c2ccccc2)OC1=O` (stereo not drawn) [Example 34, Dihydro-6-methyl-6-phenyl-3-(1-phenyl-2-propenyl)-2H-Pyran-2,4(3H)-dione]: the inhibition at 1 µM under setting [1] was less than 10%. In addition, the inhibition at 10 µM under setting [2] turned out to be 56.5%. Also, the inhibition at 100 µM under setting [3] worked out at 67.9%. The pKi (read-out: HIV-1 FITC Ki) was 6.20.

Regarding `CCCC1(c2ccccc2)CC(=O)C(C(CC)c2cccc(O)c2)C(=O)O1` (stereo not drawn) [Example 35, Dihydro-3-(1-(3-hydroxyphenyl)propyl]-6-phenyl-6-propyl-2H-pyran-2,4(3H)-dione], the inhibition at 1 µM under setting [1] turned out to be 23.8%. The inhibition at 10 µM under setting [2] came out at 79.8%. The inhibition at 100 µM under setting [3] turned out to be 73.6%.

Take `CCC(Cc1ccccc1)c1cc(O)c(C(c2cccc(NC(=O)OCc3ccccc3)c2)C2CC2)c(=O)o1` (stereo not drawn) [Example 36, 3-(α-Cyclopropyl-meta-(benzyloxycarbonylamino)benzyl)-6-(α-ethyl-phenethyl)-4-hydroxy-2H-pyran-2-one]: the inhibition at 0.41 µM (HIV-1 Dose 0.410 uM, read-out: HIV-1 Protease % Inhib) was less than 10%. For the same compound, the inhibition at 1.23 µM (HIV-1 Dose 1.230 uM, read-out: HIV-1 Protease % Inhib) is 13.7%. In addition, the inhibition at 3.7 µM (HIV-1 Dose 3.700 uM, read-out: HIV-1 Protease % Inhib) was 43.4%. Moreover, the inhibition at 11 µM (HIV-1 Dose 11.000 uM, read-out: HIV-1 Protease % Inhib) was 73.7%. Besides, the inhibition at 33 µM (HIV-1 Dose 33.000 uM, read-out: HIV-1 Protease % Inhib) was 77.2%. The inhibition at 100 µM under setting [3] came out at 87.5%.

As for `O=C(CCn1ccc2ccccc21)Nc1cccc(C(c2c(O)cc(C(CC3CC3)CC3CC3)oc2=O)C2CC2)c1` (stereo not drawn) [Example 39, N-(3-(Cyclopropyl-[6-(2-cyclopropyl-1-cyclopropylmethyl-ethyl)-4-hydroxy-2-oxo-2H-pyran-3-yl]-methyl)-phenyl)-3-indol-1-yl-propionamide], under “HIV-1 Dose 0.123 uM, read-out: HIV-1 Protease % Inhib”, the inhibition at 0.123 µM was less than 10%. Besides, the inhibition at 0.37 µM (HIV-1 Dose 0.370 uM, read-out: HIV-1 Protease % Inhib) stood at 24.8%. In addition, the inhibition at 1.1 µM (HIV-1 Dose 1.100 uM, read-out: HIV-1 Protease % Inhib) turned out to be 60.6%. Moreover, the inhibition at 3.3 µM (HIV-1 Dose 3.300 uM, read-out: HIV-1 Protease % Inhib) came to 86.3%. In addition, the inhibition at 10 µM under setting [2] amounted to 91.8%. Also, the inhibition at 30 µM (HIV-1 Dose 30.000 uM, read-out: HIV-1 Protease % Inhib) came out at 94.5%. Also, the pKi (read-out: HIV-1 FITC Ki) was 7.02.

As for `CCCC(CCC)c1cc(O)c(C(CC)c2ccccc2)c(=O)o1` (stereo not drawn) [Example 40, 4-Hydroxy-3-(1-phenyl-propyl)-6-(1-propyl-butyl)-pyran-2-one], the inhibition at 1 µM under setting [1] was found to be 37.2%. For the same compound, the inhibition at 10 µM under setting [2] was 79.5%. Under setting [3], the inhibition at 100 µM amounted to 80%.

Regarding `C=CC(c1ccccc1)c1c(O)cc(C(CCC)CCC)oc1=O` (stereo not drawn) [Example 41, 4-Hydroxy-3-(1-phenyl-allyl)-6-(1-propyl-butyl)-pyran-2-one], the inhibition at 1 µM under setting [1] worked out at 21.2%. The inhibition at 10 µM under setting [2] worked out at 65.9%. The inhibition at 100 µM under setting [3] was found to be 80.9%.

As to `CC(C)(C)OC(=O)CCc1cc(O)c(C(c2ccccc2)C2CC2)c(=O)o1` (stereo not drawn) [Example 42, 3-(5-(Cyclopropyl-phenyl-methyl)-4-hydroxy-6-oxo-6H-pyran-2-yl)-propionic acid tert-butyl ester], the inhibition at 1 µM under setting [1] came to 19.7%. In addition, the inhibition at 10 µM under setting [2] was 74.7%. In addition, the inhibition at 100 µM under setting [3] was found to be 105%. Also, where the note is “read-out: HIV-1 FITC Ki”, the pKi is 6.28.

For the origin of these results see patent EP1203770A1 (priority 1992, dated 1994).
